Patent US20110053900A1, “PROGESTERONE ANTAGONISTS SUCH AS CDB-4124 IN THE TREATMENT OF BREAST CANCER” (Repros Therapeutics inc, priority 2008, published 2011)
Marks after values point to notes of the source that are not given here.

How the values were obtained:
[1] = tested on: rat tumors (proliferation marker Ki-67); test: Tumor proliferation by Ki-67 immunohistochemistry; type: in vivo; conditions: 10 mg/kg
From the text: In order to assess the effects of progestins and anti-progestins on cell proliferation, tissue sections derived from 46 individual rat tumors from treated an control animals were examined by measuring expression of the proliferation marker Ki-67 using the Ki-67 antibody (NeoMarkers, Fremont, Calif.) and immunohistochemistry. Despite the reduction in size of many tumors in Groups 3 and 6 following treatment in Groups 3 and 6 making them too small to be re-cut, 7-12 ACAs from Groups 1, 3, 4, 6 and 11 were re-cut. The results of proliferation experiments, in which proliferation was measured as a percentage of cells expressing Ki-67, are summarized in Table 4: […]

[2] = tested on: DMBA-induced tumors of the rat mammary gland; test: DMBA-induced breast tumors: tumor progression (growth pattern); type: in vivo; conditions: 10 mg/kg
Method: (§1) To induce breast tumors, Sprague-Dawley female rats were given 10 mg/kg body weight of DMBA at 50 days of age. One group of 14 rats (Group 2) received sesame oil at 50 days of age instead of DMBA to serve as the no-DMBA controls. Animals were weighed and palpated weekly along the milk line for any sign of lesions or swellings. Tumor nodules were noted and measured weekly in two dimensions with calipers. When tumors grew to a size of 10-12 mm in any dimension, the individual animal was randomized into one of 14 groups. Tumors appeared as soon as 39 days after oral gavage and as late as 194 days (latter individual not included in study). The mean latency period for tumor appearance was 106±30 days.
(§2) Animals were treated for 28 days on the following schedule. Group 1 received daily subcutaneous (s.c.) injections of vehicle (10% ethanol in sesame oil). Group 2 (no DMBA control group-no tumors expected) received vehicle on a schedule decided beforehand to simulate initiation of treatment over a three-month time period. […] Groups 5 through 9 received 20 mg/kg, 10 mg/kg, 2 mg/kg, 1 mg/kg and 0.1 mg/kg of CDB-4124, respectively. Groups 10 through 14 mirrored the treatment given 5 through 9 except that 10 mg/kg of micronized progesterone was also added as a component to compositions for injections.
In order to evaluate the effects of CDB-4124, RU486 and progesterone on tumor development and progression, growth kinetics and tumor size were monitored during the treatment period. Individual tumors from animals with tumors in the study were measured weekly in two dimensions with calipers. The data is corrected to exclude the non-malignant FA/AF tumor types. Tumors that increased in cross-sectional area by at least 33% over the 28-day inspection period were considered to be growing (FIG. 1, black boxes). Those that decreased by approximately 33% were considered to be regressing (FIG. 1, white boxes). Others were considered to be static (FIG. 1, gray boxes).

[3] = Serum progesterone by ELISA; type: in vivo, rat; conditions: for Serum Progesterone, Before TX (mean): before treatment; for Serum Progesterone, During TX (mean): after 21 days of treatment; for Serum Progesterone, After TX (mean): at sacrifice 2-4 days after the last s.c. injection
Method: (§3) The animals were assessed three times for their levels of progesterone: initially, when they were about to go on treatment; a second time after 21 days of treatment; and finally after treatment at sacrifice which was 2-4 days after the last s.c. injection. All blood samples were taken by heart puncture; serum was prepared and held frozen at −40° C. The levels of the steroid hormones progesterone, cortisol, and corticosterone were determined by ELISA.
(§4) The concentrations of steroid hormones were determined three times during the study: before the beginning of treatments, after 21 days of treatment and finally after treatment at sacrifice which was 2-4 days after the last s.c. injection. All samples were taken by heart puncture. Serum was obtained and held frozen at −40° C. The levels of steroid hormones were determined by ELISA.

[4] = tested on: DMBA-induced tumors of the rat mammary gland; test: DMBA-induced breast tumors: tumor number and tumor type at necropsy; type: in vivo; conditions: for ACA + PCA per rat / ACA per rat / FA/AF no. / Incidence of tumors (%) / Incidence of tumors (rats with tumors/rats) / PCA per rat: 28 days
Method: as §1, §2
(§5) Animals were sacrificed 3-5 days after the end of the 28-day treatment period, blood was drawn, and tumors were removed, weighed, measured, inspected, and portions frozen and/or placed in 10% phosphate buffered formalin for histopathology. The tissue samples were cut and stained with hematoxylin and eosin and were evaluated for histopathological classification.
Histologically, four types of tumors were identified (Table 2): adenocarcinomas (ACAs), papillary carcinomas (PCAs), a fibrosarcoma, and fibroadenomas or adenofibromas (FA or AF), the latter two tumor types were not considered to represent frank malignancies.

Serum cortisol by ELISA = type: in vivo, rat; conditions: 10 mg/kg, 21 days of dosing
Method: as §3, §4

[5] = tested on: DMBA-induced tumors of the rat mammary gland; test: DMBA-induced breast tumors: tumor number, size and tumor burden at necropsy; type: in vivo; conditions: for Tumor Burden / Tumor Weight mean / Tumor Weight median / Number of Tumors: 28 days; for Number of Tumors: FA/AF excluded; for lowering of tumor burden and median tumor sizes: 10 mg/kg, versus control
Method: as §1, §2, §5
The results in Table 3 are those for ACA, PCA and mixed ACA/PCA, but the FA or AF tumors are excluded.

rat tumors = test: Apoptosis in tumors; type: in vivo; conditions: 10 mg/kg
Method: Apoptosis was evaluated in the same tumors by an apoptosis hybridization kit (Oncor, Gaithersburg, Md.). The cells in apoptosis were evaluated in the peripheral areas of the tumors and far from necrosis. At least 1,000 cells per tumor section were evaluated.

With `COCC(=O)[C@@]1(OC(C)=O)CC[C@H]2[C@@H]3CCC4=CC(=O)CCC4=C3[C@@H](c3ccc(N(C)C)cc3)C[C@@]21C` [CDB-4124, 21-methoxy-17α-acetoxy-11β-(4 N,N-dimethylaminophenyl)-19-norpregna-4,9-diene-3,20-dione] the “Proliferating tumor cells by Ki-67, % cells positive” value [1] was 5.1 ± 4.2%, the “proportion of tumors regressing” value ([2]; decrease of cross-sectional area by about 33% over 28 days) was 70% and the “Serum Progesterone, Before TX (mean)” value ([3]; 0.1 mg/kg group) was 54 ng/mL. The “Serum Progesterone, During TX (mean)” value ([3]; 0.1 mg/kg) was 53 ng/mL, the “Serum Progesterone, After TX (mean)” value ([3]; 0.1 mg/kg) was 53 ng/mL and the “Serum Progesterone, Before TX (mean)” value ([3]; 1 mg/kg group) was 64 ng/mL. For the same compound, the “Serum Progesterone, During TX (mean)” value ([3]; 1 mg/kg) was 47 ng/mL, the “Serum Progesterone, After TX (mean)” value ([3]; 1 mg/kg) was 42 ng/mL and the “Serum Progesterone, Before TX (mean)” value ([3]; 2 mg/kg group) was 59 ng/mL. For the same compound, the “Serum Progesterone, During TX (mean)” value ([3]; 2 mg/kg) was 74* ng/ml, the “Serum Progesterone, After TX (mean)” value ([3]; 2 mg/kg) was 56 ng/mL and the “Serum Progesterone, Before TX (mean)” value ([3]; 10 mg/kg group) was 52 ng/mL. The “Serum Progesterone, During TX (mean)” value ([3]; 10 mg/kg) was 77* ng/ml, the “Serum Progesterone, After TX (mean)” value ([3]; 10 mg/kg) was 43 ng/mL and the “Serum Progesterone, Before TX (mean)” value ([3]; 20 mg/kg group) was 61 ng/mL. For the same compound, the “Serum Progesterone, During TX (mean)” value ([3]; 20 mg/kg) was 96* ng/ml, the “Serum Progesterone, After TX (mean)” value ([3]; 20 mg/kg) was 58 ng/mL and the “ACA + PCA per rat” value ([4]; 0.1 mg/kg s.c. daily) was 2.25. For the same compound, the ACA per rat ([4]; 0.1 mg/kg s.c. daily) was 1.17, the FA/AF no. ([4]; 0.1 mg/kg s.c. daily) was 3 and the “Incidence of tumors (%)” value ([4]; 0.1 mg/kg s.c. daily) was “(100) %”. For the same compound, the “Incidence of tumors (rats with tumors/rats)” value ([4]; 0.1 mg/kg s.c. daily) was 12/12, the PCA per rat ([4]; 0.1 mg/kg s.c. daily) was 0.83 and the “ACA + PCA per rat” value ([4]; 1 mg/kg s.c. daily) was 1.78. For the same compound, the ACA per rat ([4]; 1 mg/kg s.c. daily) was 1.67, the FA/AF no. ([4]; 1 mg/kg s.c. daily) was 2 and the “Incidence of tumors (%)” value ([4]; 1 mg/kg s.c. daily) was “(82) %”. For the same compound, the “Incidence of tumors (rats with tumors/rats)” value ([4]; 1 mg/kg s.c. daily) was 9/11, the PCA per rat ([4]; 1 mg/kg s.c. daily) was 0.11 and the “ACA + PCA per rat” value ([4]; 2 mg/kg s.c. daily) was 1.55. The ACA per rat ([4]; 2 mg/kg s.c. daily) was 1.45, the FA/AF no. ([4]; 2 mg/kg s.c. daily) was 2 and the “Incidence of tumors (%)” value ([4]; 2 mg/kg s.c. daily) was “(92) %”. The “Incidence of tumors (rats with tumors/rats)” value ([4]; 2 mg/kg s.c. daily) was 11/12, the PCA per rat ([4]; 2 mg/kg s.c. daily) was 0.09 and the “ACA + PCA per rat” value ([4]; 10 mg/kg s.c. daily) was 1.70. For the same compound, the ACA per rat ([4]; 10 mg/kg s.c. daily) was 1.5, the FA/AF no. ([4]; 10 mg/kg s.c. daily) was 1 and the “Incidence of tumors (%)” value ([4]; 10 mg/kg s.c. daily) was “(91) %”. The “Incidence of tumors (rats with tumors/rats)” value ([4]; 10 mg/kg s.c. daily) was 10/11, the PCA per rat ([4]; 10 mg/kg s.c. daily) was 0.2 and the “ACA + PCA per rat” value ([4]; 20 mg/kg s.c. daily) was 1.38. The ACA per rat ([4]; 20 mg/kg s.c. daily) was 1.31, the FA/AF no. ([4]; 20 mg/kg s.c. daily) was 3 and the “Incidence of tumors (%)” value ([4]; 20 mg/kg s.c. daily) was “(100) %”. For the same compound, the “Incidence of tumors (rats with tumors/rats)” value ([4]; 20 mg/kg s.c. daily) was 13/13, the PCA per rat ([4]; 20 mg/kg s.c. daily) was 0.08 and the “average multiplicity across the highest four treatment groups” value ([4]; 20, 10, 2, 1 mg/kg/day) was 1.58 tumors per rat. The “serum cortisol versus control group (in words)” value (Serum cortisol by ELISA) was “significantly higher levels of serum cortisol”, the “Tumor Burden” value ([5]; 0.1 mg/kg s.c. daily) was 5.1 g/rat and the “Tumor Weight mean” value ([5]; 0.1 mg/kg s.c. daily) was 2.26 g. For the same compound, the “Tumor Weight median” value ([5]; 0.1 mg/kg s.c. daily) was 0.17 g, the “Number of Tumors” value ([5]; 0.1 mg/kg s.c. daily) was 29 and the “Tumor Burden” value ([5]; 1 mg/kg s.c. daily) was 0.94 g/rat. For the same compound, the “Tumor Weight mean” value ([5]; 1 mg/kg s.c. daily) was 0.53 g, the “Tumor Weight median” value ([5]; 1 mg/kg s.c. daily) was 0.17 g and the “Number of Tumors” value ([5]; 1 mg/kg s.c. daily) was 16. For the same compound, the “Tumor Burden” value ([5]; 2 mg/kg s.c. daily) was 4.61 g/rat, the “Tumor Weight mean” value ([5]; 2 mg/kg s.c. daily) was 2.98 g and the “Tumor Weight median” value ([5]; 2 mg/kg s.c. daily) was 0.09 g. For the same compound, the “Number of Tumors” value ([5]; 2 mg/kg s.c. daily) was 17, the “Tumor Burden” value ([5]; 10 mg/kg s.c. daily) was 0.48 g/rat and the “Tumor Weight mean” value ([5]; 10 mg/kg s.c. daily) was 0.26 g. For the same compound, the “Tumor Weight median” value ([5]; 10 mg/kg s.c. daily) was 0.075 g, the “Number of Tumors” value ([5]; 10 mg/kg s.c. daily) was 18 and the “lowering of tumor burden and median tumor sizes” value [5] was 10 fold. The “Tumor Burden” value ([5]; 20 mg/kg s.c. daily) was 4.71 g/rat, the “Tumor Weight mean” value ([5]; 20 mg/kg s.c. daily) was 3.4 g and the “Tumor Weight median” value ([5]; 20 mg/kg s.c. daily) was 0.125 g. The “Number of Tumors” value ([5]; 20 mg/kg s.c. daily) was 20 and the “Apoptosis, % cells positive” value (rat tumors) was 3.84 ± 3.10%.
In the case of `CC#C[C@]1(O)CC[C@H]2[C@@H]3CCC4=CC(=O)CCC4=C3[C@@H](c3ccc(N(C)C)cc3)C[C@@]21C` [RU 486, mifepristone, reference compound], the “Proliferating tumor cells by Ki-67, % cells positive” value [1] is reported as 12.9 ± 7.0%, the “effect on tumor growth pattern (in words)” value ([2]; compared to the controls) is reported as “apparent increase in the proportion of regressing tumors” and the “Serum Progesterone, Before TX (mean)” value ([3]; 10 mg/kg group) is reported as 58 ng/mL. The “Serum Progesterone, During TX (mean)” value ([3]; 10 mg/kg) was 72* ng/ml, the “Serum Progesterone, After TX (mean)” value ([3]; 10 mg/kg) was 52 ng/mL and the “ACA + PCA per rat” value ([4]; 10 mg/kg s.c. daily) was 2.00. The ACA per rat ([4]; 10 mg/kg s.c. daily) was 2.08, the FA/AF no. ([4]; 10 mg/kg s.c. daily) was 1 and the “Incidence of tumors (%)” value ([4]; 10 mg/kg s.c. daily) was “(93) %”. The “Incidence of tumors (rats with tumors/rats)” value ([4]; 10 mg/kg s.c. daily) was 13/14, the PCA per rat ([4]; 10 mg/kg s.c. daily) was 0.08 and the “serum cortisol versus control group (in words)” value (Serum cortisol by ELISA) was “no significant difference in the levels of cortisol”. The “Tumor Burden” value ([5]; 10 mg/kg s.c. daily) was 2.47 g/rat, the “Tumor Weight mean” value ([5]; 10 mg/kg s.c. daily) was 1.19 g and the “Tumor Weight median” value ([5]; 10 mg/kg s.c. daily) was 0.16 g. The “Number of Tumors” value ([5]; 10 mg/kg s.c. daily) was 27, the “lowering of tumor burden and median tumor sizes” value [5] was 5 fold and the “Apoptosis, % cells positive” value (rat tumors) was 3.34 ± 2.57%.
